According to US7994140B2, “Classes of compounds that interact with GPCRs” (Alchemia Limited, priority 2002, dated 2011):

What was measured:
SST5 = biological target: T1, SST5 (Homo sapiens, UniProt P35346); assay: GPCR radioligand binding (RLB) assay, somatostatin SST5, [125I]SST-14; settings: for SSTS inhibition at 10 micromolar: Example Library 4; for SST5 inhibition at 10 micromolar: 10 micromolar compound, recombinant human receptor membranes (HEK 293)
T1 construct: purchased Perkin Elmer BioSignal; host or cells: HEK 293
T1 sequence (P35346 whole entry): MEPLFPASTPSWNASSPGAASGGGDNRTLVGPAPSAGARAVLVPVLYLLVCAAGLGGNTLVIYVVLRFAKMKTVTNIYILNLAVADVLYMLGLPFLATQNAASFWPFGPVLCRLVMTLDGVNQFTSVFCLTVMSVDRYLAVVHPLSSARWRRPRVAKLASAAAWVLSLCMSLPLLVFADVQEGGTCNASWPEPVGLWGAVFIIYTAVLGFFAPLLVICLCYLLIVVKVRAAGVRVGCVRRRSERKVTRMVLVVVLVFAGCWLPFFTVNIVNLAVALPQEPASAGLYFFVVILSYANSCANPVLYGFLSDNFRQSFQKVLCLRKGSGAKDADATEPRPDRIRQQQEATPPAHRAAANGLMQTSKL
Method in brief: (§1)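 Competition binding against radioligand ([125I]NDP-αMSH for MC4, [125I]SST-14 for SST5) on membranes of HEK 293 cells carrying the human receptor; buffer and incubation time optimized per receptor. Filtration through 0.5% PEI-treated glass fiber, washing, then scintillation counting.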

MC4 = biological target: T2, MC4 (Homo sapiens, UniProt P32245); assay: GPCR radioligand binding (RLB) assay, melanocortin MC4, [125I]NDP-αMSH
T2 construct: purchased Perkin Elmer BioSignal; host or cells: HEK 293
T2 sequence (P32245 whole entry): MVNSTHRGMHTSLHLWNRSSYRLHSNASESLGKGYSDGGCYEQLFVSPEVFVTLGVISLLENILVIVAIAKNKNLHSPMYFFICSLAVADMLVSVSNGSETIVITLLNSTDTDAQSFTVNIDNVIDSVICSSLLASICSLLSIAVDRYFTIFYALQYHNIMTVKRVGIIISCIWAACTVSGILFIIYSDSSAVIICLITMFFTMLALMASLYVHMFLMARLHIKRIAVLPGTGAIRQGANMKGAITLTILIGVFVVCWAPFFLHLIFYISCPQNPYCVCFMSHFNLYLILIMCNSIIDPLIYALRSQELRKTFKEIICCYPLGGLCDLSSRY
Method in brief: as §1

[1] = 10 micromolar, Example Library 4
[2] = 10 micromolar compound, recombinant human receptor membranes (HEK 293)

| SMILES | SSTS inhibition at 10 micromolar (SST5) | MC4 inhibition at 10 micromolar (MC4; [1]) | SST5 inhibition at 10 micromolar (SST5) | MC4 inhibition at 10 micromolar (MC4; [2]) |
| --- | --- | --- | --- | --- |
| COCC1OC(OCc2ccccc2)C(NC(=O)CNC(=N)N)C(OCc2ccc(Cl)cc2)C1O (stereo not drawn) [Compound 220] | + (Indicates inhibition greater than . . . 50%) | + (Indicates inhibition greater than . . . 50%) |  |  |
| CSC1OC(COCc2ccc(Cl)cc2)C(O)C(OCc2ccc(Cl)cc2)C1NC(=O)CCCNC(=N)N (stereo not drawn) [Compound 154] |  |  | + (Indicates inhibition greater than . . . 50%) | + (Indicates inhibition greater than . . . 50%) |
| CSC1OC(COCc2ccc3ccccc3c2)C(O)C(OCc2ccc(-c3ccccc3)cc2)C1NC(=O)CCN (stereo not drawn) [Compound 187] |  |  | + (Indicates inhibition greater than . . . 50%) | + (Indicates inhibition greater than . . . 50%) |
| CO[C@H]1[C@H](O)[C@@H](COCc2ccc(-c3ccccc3)cc2)OC(OCc2ccc(-c3ccccc3)cc2)[C@@H]1NC(=O)CNC(=N)N (stereo partly drawn) [Compound 56] |  |  | + (Indicates inhibition greater than . . . 50%) | + (Indicates inhibition greater than . . . 50%) |
| COCC1OC(OCc2ccccc2)C(NC(=O)CCNC(=N)N)C(OCc2ccccc2)C1O (stereo not drawn) [Compound 216] | + (Indicates inhibition greater than . . . 50%) | + (Indicates inhibition greater than . . . 50%) |  |  |
| CSC1OC(COCc2ccc3ccccc3c2)C(O)C(OCc2ccc(-c3ccccc3)cc2)C1NC(=O)CCNC(=N)N (stereo not drawn) [Compound 188] |  |  | + (Indicates inhibition greater than . . . 50%) | + (Indicates inhibition greater than . . . 50%) |
| CSC1OC(COCc2ccc3ccccc3c2)C(O)C(OCc2ccc(Cl)cc2)C1NC(=O)CCNC(=N)N (stereo not drawn) [Compound 164] |  |  | + (Indicates inhibition greater than . . . 50%) | + (Indicates inhibition greater than . . . 50%) |
| CSC1OC(COCc2ccccc2)C(O)C(OCc2ccccc2)C1NC(=O)CNC(=N)N (stereo not drawn) [Compound 120] |  |  | + (Indicates inhibition greater than . . . 50%) | + (Indicates inhibition greater than . . . 50%) |
| CSC1OC(COCc2ccc(-c3ccccc3)cc2)C(O)C(OCc2ccc(Cl)cc2)C1NC(=O)CCN (stereo not drawn) [Compound 157] |  |  | + (Indicates inhibition greater than . . . 50%) | + (Indicates inhibition greater than . . . 50%) |
| CSC1OC(COCc2ccc(-c3ccccc3)cc2)C(O)C(OCc2ccccc2)C1NC(=O)CCNC(=N)N (stereo not drawn) [Compound 134] |  |  | + (Indicates inhibition greater than . . . 50%) | + (Indicates inhibition greater than . . . 50%) |
| CSC1OC(COCc2ccccc2)C(O)C(OCc2ccc(Cl)cc2)C1NC(=O)CCN (stereo not drawn) [Compound 145] |  |  | + (Indicates inhibition greater than . . . 50%) | + (Indicates inhibition greater than . . . 50%) |
| COCC1OC(OCCc2ccccc2)C(NC(=O)CN)C(OCc2ccc(-c3ccccc3)cc2)C1O (stereo not drawn) [Compound 274] | + (Indicates inhibition greater than . . . 50%) | + (Indicates inhibition greater than . . . 50%) |  |  |
| COCC1OC(OCCc2ccccc2)C(NC(=O)CCNC(=N)N)C(OCc2ccc3ccccc3c2)C1O (stereo not drawn) [Compound 281] | + (Indicates inhibition greater than . . . 50%) | + (Indicates inhibition greater than . . . 50%) |  |  |
| COCC1OC(OCc2ccc3ccccc3c2)C(NC(=O)CCNC(=N)N)C(OCc2ccc3ccccc3c2)C1O (stereo not drawn) [Compound 305] | + (Indicates inhibition greater than . . . 50%) | + (Indicates inhibition greater than . . . 50%) |  |  |
| CO[C@H]1[C@H](O)[C@@H](COCc2ccc(-c3ccccc3)cc2)OC(OCc2ccc(-c3ccccc3)cc2)[C@@H]1NC(=O)CCNC(=N)N (stereo partly drawn) [Compound 57] |  |  | + (Indicates inhibition greater than . . . 50%) | + (Indicates inhibition greater than . . . 50%) |
| COC1C(O)C(COCc2ccc3ccccc3c2)OC(OCc2ccc(Cl)cc2)C1NC(=O)CCCN (stereo not drawn) [Compound 89] |  |  | + (Indicates inhibition greater than . . . 50%) | + (Indicates inhibition greater than . . . 50%) |
| COCC1OC(OCc2ccccc2)C(NC(=O)CCCN)C(OCc2ccc3ccccc3c2)C1O (stereo not drawn) [Compound 235] | + (Indicates inhibition greater than . . . 50%) | + (Indicates inhibition greater than . . . 50%) |  |  |
| COC[C@H]1OC(OCc2ccc(Cl)cc2)[C@H](NC(=O)CCNC(=N)N)[C@@H](OCc2ccc(-c3ccccc3)cc2)[C@@H]1O (stereo partly drawn) [Compound 13] |  |  | + (Indicates inhibition greater than . . . 50%) | + (Indicates inhibition greater than . . . 50%) |
| CSC1OC(COCc2ccc(Cl)cc2)C(O)C(OCc2ccccc2)C1NC(=O)CCNC(=N)N (stereo not drawn) [Compound 128] |  |  | + (Indicates inhibition greater than . . . 50%) | + (Indicates inhibition greater than . . . 50%) |
| CSC1OC(COCc2ccc3ccccc3c2)C(O)C(OCc2ccc3ccccc3c2)C1NC(=O)CCN (stereo not drawn) [Compound 211] |  |  | + (Indicates inhibition greater than . . . 50%) | + (Indicates inhibition greater than . . . 50%) |
| CO[C@H]1[C@H](O)[C@@H](COCc2ccc(-c3ccccc3)cc2)OC(OCCc2ccccc2)[C@@H]1NC(=O)CCCN (stereo partly drawn) [Compound 98] |  |  | + (Indicates inhibition greater than . . . 50%) | + (Indicates inhibition greater than . . . 50%) |
| CSC1OC(COCc2ccc(Cl)cc2)C(O)C(OCc2ccc(-c3ccccc3)cc2)C1NC(=O)CCCNC(=N)N (stereo not drawn) [Compound 178] |  |  | + (Indicates inhibition greater than . . . 50%) | + (Indicates inhibition greater than . . . 50%) |
| CSC1OC(COCc2ccc3ccccc3c2)C(O)C(OCc2ccc(-c3ccccc3)cc2)C1NC(=O)CCCN (stereo not drawn) [Compound 189] |  |  | + (Indicates inhibition greater than . . . 50%) | + (Indicates inhibition greater than . . . 50%) |
| COCC1OC(OCc2ccc3ccccc3c2)C(NC(=O)CNC(=N)N)C(OCc2ccccc2)C1O (stereo not drawn) [Compound 285] | + (Indicates inhibition greater than . . . 50%) | + (Indicates inhibition greater than . . . 50%) |  |  |
| CSC1OC(COCc2ccc(-c3ccccc3)cc2)C(O)C(OCc2ccc3ccccc3c2)C1NC(=O)CCNC(=N)N (stereo not drawn) [Compound 206] |  |  | + (Indicates inhibition greater than . . . 50%) | + (Indicates inhibition greater than . . . 50%) |
| COC[C@H]1OC(OCc2ccc3ccccc3c2)[C@H](NC(=O)CCCNC(=N)N)[C@@H](OCc2ccc3ccccc3c2)[C@@H]1O (stereo partly drawn) [Compound 40] |  |  | + (Indicates inhibition greater than . . . 50%) | + (Indicates inhibition greater than . . . 50%) |
| COCC1OC(OCc2ccc3ccccc3c2)C(NC(=O)CCNC(=N)N)C(OCc2ccc(Cl)cc2)C1O (stereo not drawn) [Compound 293] | + (Indicates inhibition greater than . . . 50%) | + (Indicates inhibition greater than . . . 50%) |  |  |
